Measured values from PubChem BioAssay (NCI).
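Assay format: 96-well plates, 48-hour exposure. TGI marks complete inhibition of growth.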

What was measured:
Assay in all cases: NCI-60 cell line screen, 48 h
[1] = test system: CAKI-1 renal
[2] = test system: COLO 205 colon
[3] = test system: HCT-116 colon
[4] = test system: M14 melanoma
[5] = test system: MALME-3M melanoma
[6] = test system: MCF7 breast
[7] = test system: NCI/ADR-RES ovarian
[8] = test system: OVCAR-8 ovarian
[9] = test system: SF-295 CNS
[10] = test system: SF-539 CNS
[11] = test system: SK-MEL-28 melanoma
[12] = test system: SK-MEL-5 melanoma
[13] = test system: SK-OV-3 ovarian
[14] = test system: SNB-19 CNS
[15] = test system: SNB-75 CNS
[16] = test system: SW-620 colon
[17] = test system: UACC-257 melanoma
[18] = test system: UO-31 renal
[19] = test system: NCI-H460 lung
[20] = test system: OVCAR-4 ovarian

In the case of CCOC(CCCN1CCC2(CC1)C(=O)N(C)CN2c1ccccc1)(OCC)c1ccc(F)cc1, the TGI [1] is reported as 49.2 µM, the TGI [2] is reported as 6.88 µM and the TGI [3] is reported as 14.2 µM. It also gave a TGI [4] of 23.9 µM, a TGI [5] of 31.2 µM and a TGI [6] of 13.8 µM. For the same compound, the TGI [7] was 33.5 µM, the TGI [8] was 33.6 µM and the TGI [9] was 25.3 µM. The TGI [10] was 13.7 µM, the TGI [11] was 30.5 µM and the TGI [12] was 14.9 µM. The TGI [13] was 46.8 µM, the TGI [14] was 22.6 µM and the TGI [15] was 43.8 µM. For the same compound, the TGI [16] was 28.7 µM, the TGI [17] was 18.5 µM and the TGI [18] was 19.8 µM.
Compound CN1CN(c2ccccc2)C2(CCN(CCCC(=O)c3cccs3)CC2)C1=O has a TGI [1] greater than 100 µM, a TGI [2] of 47.7 µM and a TGI [3] greater than 100 µM. The TGI [4] was greater than 100 µM, the TGI [5] was greater than 100 µM and the TGI [6] was 72.6 µM. It also gave a TGI [7] greater than 100 µM, a TGI [8] greater than 100 µM and a TGI [9] of 85.6 µM. The TGI [10] was 64 µM, the TGI [11] was greater than 100 µM and the TGI [12] was 65 µM. It also gave a TGI [13] greater than 100 µM, a TGI [14] greater than 100 µM and a TGI [15] greater than 100 µM. It also gave a TGI [16] greater than 100 µM, a TGI [17] of 90.6 µM and a TGI [18] greater than 100 µM.
O=C1CCC[C@H]2O[C@@H](COCc3ccccc3)C[C@@H]12 showed a TGI [1] greater than 100 µM, a TGI [2] greater than 100 µM and a TGI [3] greater than 100 µM. The TGI [4] was greater than 100 µM, the TGI [6] was greater than 100 µM and the TGI [19] was greater than 100 µM. For the same compound, the TGI [7] was greater than 100 µM, the TGI [20] was greater than 100 µM and the TGI [8] was greater than 100 µM. For the same compound, the TGI [9] was greater than 100 µM, the TGI [10] was greater than 100 µM and the TGI [11] was greater than 100 µM. The TGI [12] was greater than 100 µM, the TGI [13] was greater than 100 µM and the TGI [14] was greater than 100 µM. The TGI [15] was greater than 100 µM, the TGI [16] was greater than 100 µM and the TGI [17] was greater than 100 µM. It also gave a TGI [18] greater than 100 µM.
Work on O=C(NCCNCCO)N/N=C/c1ccc([N+](=O)[O-])cc1 yielded a TGI [1] greater than 100 µM, a TGI [2] greater than 100 µM and a TGI [3] greater than 100 µM. It also gave a TGI [4] greater than 100 µM, a TGI [5] greater than 100 µM and a TGI [6] greater than 100 µM. It also gave a TGI [19] greater than 100 µM, a TGI [7] greater than 100 µM and a TGI [8] greater than 100 µM. The TGI [9] was greater than 100 µM, the TGI [10] was greater than 100 µM and the TGI [11] was greater than 100 µM. It also gave a TGI [12] greater than 100 µM, a TGI [13] greater than 100 µM and a TGI [14] greater than 100 µM. The TGI [15] was 98.5 µM, the TGI [16] was greater than 100 µM and the TGI [17] was greater than 100 µM. The TGI [18] was greater than 100 µM.
For CN(/N=C/c1cccs1)c1ccc([N+](=O)[O-])cc1[N+](=O)[O-], the TGI [1] was greater than 100 µM, the TGI [2] was greater than 100 µM and the TGI [3] was greater than 100 µM. The TGI [4] was greater than 100 µM, the TGI [6] was greater than 100 µM and the TGI [19] was greater than 100 µM. For the same compound, the TGI [7] was greater than 100 µM, the TGI [20] was greater than 100 µM and the TGI [8] was greater than 100 µM. For the same compound, the TGI [9] was greater than 100 µM, the TGI [10] was greater than 100 µM and the TGI [11] was greater than 100 µM. It also gave a TGI [12] greater than 100 µM, a TGI [13] greater than 100 µM and a TGI [14] greater than 100 µM. The TGI [15] was greater than 100 µM, the TGI [16] was greater than 100 µM and the TGI [17] was greater than 100 µM. For the same compound, the TGI [18] was greater than 100 µM.
